Laboratory results published in the supplement of paper PMC10307832.

Experiments:
Experiment in all cases: relative viability (nuclei count vs DMSO), 5 days (fraction); higher = more cells survive
HCC-15 = tested on: HCC-15
In short: (§1)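 Dosing by pin tool came one day after lung cancer cell lines were seeded in 1536-well plates, using either one drug or a fixed anchor-drug dose plus five library-drug doses (not always all listed) in √10 steps. After 5 days, nuclei were counted on 4× images. Relative viability is treated-well nuclei count divided by vehicle-well nuclei count, and values are medians of duplicate plates.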

HCC-827 = tested on: HCC-827
In short: as §1

EKVX = tested on: EKVX
In short: as §1

H3255 = tested on: H3255
In short: as §1

LCLC-103H = tested on: LCLC-103H
In short: as §1

UMC-11 = tested on: UMC-11
In short: as §1

NCI-H1792 = tested on: NCI-H1792
In short: as §1

NCI-H1650 = tested on: NCI-H1650
In short: as §1

NCI-H2087 = tested on: NCI-H2087
In short: as §1

NCI-H661 = tested on: NCI-H661
In short: as §1

NCI-H1437 = tested on: NCI-H1437
In short: as §1

NCI-H1651 = tested on: NCI-H1651
In short: as §1

O=c1[nH]c2ccccc2n1C1CCN(CCCC(c2ccc(F)cc2)c2ccc(F)cc2)CC1 [Pimozide] + Nc1ncn([C@H]2C[C@H](O)[C@@H](CO)O2)c(=O)n1 [Decitabine] (partner 2 µM) gave a relative viability (HCC-15; first compound 0.08 µM) of 0.658, a relative viability (HCC-15; first compound 0.253 µM) of 0.629 and a relative viability (HCC-15; first compound 0.8 µM) of 0.452. For the same compound, the relative viability (HCC-15; first compound 2.53 µM) was 0.551, the relative viability (HCC-15; first compound 8 µM) was 0.66 and the relative viability (HCC-827; first compound 0.253 µM) was 0.284. It also gave a relative viability (HCC-827; first compound 0.8 µM) of 0.348, a relative viability (HCC-827; first compound 2.53 µM) of 0.334 and a relative viability (HCC-827; first compound 8 µM) of 0.32. The relative viability (EKVX; first compound 0.253 µM) was 0.333, the relative viability (EKVX; first compound 0.8 µM) was 0.341 and the relative viability (EKVX; first compound 2.53 µM) was 0.349. For the same compound, the relative viability (EKVX; first compound 8 µM) was 0.364, the relative viability (H3255; first compound 0.253 µM) was 0.538 and the relative viability (H3255; first compound 0.8 µM) was 0.496. It also gave a relative viability (H3255; first compound 2.53 µM) of 0.626, a relative viability (H3255; first compound 8 µM) of 0.734 and a relative viability (LCLC-103H; first compound 0.08 µM) of 0.765. For the same compound, the relative viability (LCLC-103H; first compound 0.253 µM) was 0.712, the relative viability (LCLC-103H; first compound 0.8 µM) was 0.674 and the relative viability (LCLC-103H; first compound 2.53 µM) was 0.691. It also gave a relative viability (LCLC-103H; first compound 8 µM) of 0.707, a relative viability (UMC-11; first compound 0.08 µM) of 0.638 and a relative viability (UMC-11; first compound 0.253 µM) of 0.579. The relative viability (UMC-11; first compound 0.8 µM) was 0.53, the relative viability (UMC-11; first compound 2.53 µM) was 0.593 and the relative viability (UMC-11; first compound 8 µM) was 1.03. The relative viability (NCI-H1792; first compound 0.08 µM) was 0.59, the relative viability (NCI-H1792; first compound 0.253 µM) was 0.53 and the relative viability (NCI-H1792; first compound 0.8 µM) was 0.33. It also gave a relative viability (NCI-H1792; first compound 2.53 µM) of 0.534, a relative viability (NCI-H1792; first compound 8 µM) of 0.547 and a relative viability (NCI-H1650; first compound 0.08 µM) of 0.287. For the same compound, the relative viability (NCI-H1650; first compound 0.253 µM) was 0.485, the relative viability (NCI-H1650; first compound 0.8 µM) was 0.315 and the relative viability (NCI-H1650; first compound 2.53 µM) was 0.404. The relative viability (NCI-H1650; first compound 8 µM) was 0.405, the relative viability (NCI-H2087; first compound 0.08 µM) was 0.277 and the relative viability (NCI-H2087; first compound 0.253 µM) was 0.328. It also gave a relative viability (NCI-H2087; first compound 2.53 µM) of 0.342, a relative viability (NCI-H2087; first compound 8 µM) of 0.275 and a relative viability (NCI-H661; first compound 0.08 µM) of 0.564. The relative viability (NCI-H661; first compound 0.253 µM) was 0.581, the relative viability (NCI-H661; first compound 0.8 µM) was 0.48 and the relative viability (NCI-H661; first compound 2.53 µM) was 0.497. The relative viability (NCI-H661; first compound 8 µM) was 0.495, the relative viability (NCI-H1437; first compound 0.08 µM) was 0.632 and the relative viability (NCI-H1437; first compound 0.253 µM) was 0.547. It also gave a relative viability (NCI-H1437; first compound 0.8 µM) of 0.555, a relative viability (NCI-H1437; first compound 2.53 µM) of 0.465 and a relative viability (NCI-H1437; first compound 8 µM) of 0.549. The relative viability (NCI-H1651; first compound 0.08 µM) was 0.597, the relative viability (NCI-H1651; first compound 0.253 µM) was 0.507 and the relative viability (NCI-H1651; first compound 0.8 µM) was 0.719. It also gave a relative viability (NCI-H1651; first compound 2.53 µM) of 0.588 and a relative viability (NCI-H1651; first compound 8 µM) of 0.611.
